Assay results from paper PMC10648349, “Aromatic Diboronic Acids as Effective KPC/AmpC Inhibitors” (Molecules, 2023).
Converted amounts (≈) assume the structure as drawn.

Test system: Gram-negative rods (except P. aeruginosa)
Assay: direct antimicrobial activity, MIC
Type: cell-based
Procedure: Direct antimicrobial activity against Gram-negative and Gram-positive bacterial strains, as well as against yeast, was examined as previously described by the disc-diffusion test, the MIC determination assay, the MBC (for bacteria), and the MFC (for yeasts) determination tests. All the above-mentioned tests were performed according to EUCAST [71, 72] and CLSI [73, 74, 75, 76, 77] recommendations. The following reference agents were used: nitrofurantoin (for Gram-negative rods), linezolid (for Gram-positive bacteria), and fluconazole (in the case of fungi). The new aromatic diboronic acids were dissolved in DMSO (Sigma, St. Louis, MO, USA). In the disc-diffusion test, the concentration of new agents was 0.4 mg per disc.

Compound | MIC [µg/mL]
OB(O)c1cc(F)ccc1F [7a, 2,5-difluorophenylboronic acid] | 50 to 400 (≈ 317 to 2530 µM)
O=Cc1cc(F)ccc1B(O)O [7b] | 50 to 400 (≈ 298 to 2380 µM)
OB(O)c1ccccc1B(O)O [3a, phenylene-1,2-diboronic acid] | 50 to 400 (≈ 302 to 2410 µM)
OB(O)c1cc(Br)c(B(O)O)cc1Br [1i] | 50 to 400 (≈ 155 to 1240 µM)
